This is an account of results in patent publication US8354414B2, “Substituted bicyclic pyrimidines” (Cephalon, Inc, priority 2006, dated 2013).

Like-named read-outs stand apart in the source and are kept apart here.

The target of one data set is T1, His6-GSK-3β (Homo sapiens, UniProt P49841).
T1 construct: made in house; host or cells: Sf21 insect cells (baculovirus)
The experiment in a line: Inhibition of His6-GSK-3β kinase activity (ELISA-based format, time-resolved fluorescence readout). The following applies: read-out: GSK3β IC50. In kind it is biochemical. An outline of the steps: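 N-terminal His6-tagged full-length human GSK-3β (aa 2-419) expressed in Sf21 cells, 200 ng/ml, phosphorylating plate-coated GST-Rb with 20 μM ATP in pH 7.2 HEPES buffer, 30 min at 37° C. Phospho-Rb (Ser-780) detected by antibody plus Eu-labelled secondary, time-resolved fluorescence; IC50 from curves.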

A further data set deals with T2, CDK5/GST-p25 (Homo sapiens, UniProt Q00535).
T2 construct: The final construct, encoding for full-length human CDK5; made in house; host or cells: Sf21 insect cells (baculovirus co-infection)
T2 sequence (Q00535 whole entry): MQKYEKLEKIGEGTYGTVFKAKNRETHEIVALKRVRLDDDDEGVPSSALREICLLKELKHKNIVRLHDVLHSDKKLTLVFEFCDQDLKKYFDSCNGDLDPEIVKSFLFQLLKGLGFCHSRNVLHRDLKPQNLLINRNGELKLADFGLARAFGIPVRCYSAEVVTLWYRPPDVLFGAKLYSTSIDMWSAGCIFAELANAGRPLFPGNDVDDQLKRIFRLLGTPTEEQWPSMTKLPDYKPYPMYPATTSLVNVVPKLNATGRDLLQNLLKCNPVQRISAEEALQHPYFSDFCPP
T2 sequence (Q15078 108-307 partner limits assumed): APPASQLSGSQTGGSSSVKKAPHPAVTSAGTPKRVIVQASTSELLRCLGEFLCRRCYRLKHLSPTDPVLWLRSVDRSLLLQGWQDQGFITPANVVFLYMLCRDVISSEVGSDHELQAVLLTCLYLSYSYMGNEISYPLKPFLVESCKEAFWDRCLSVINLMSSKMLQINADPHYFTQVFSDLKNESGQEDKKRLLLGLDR
The experiment in a line: Inhibition of CDK5/GST-p25 kinase activity (ELISA with time-resolved fluorescence readout). In kind it is biochemical. To be noted: for IC50: class symbols. The method, boiled down:
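Sf21-coexpressed full-length human CDK5 with GST-p25 (p35 aa 108-307), glutathione-purified, at 2 ng/ml was reacted for 20 min at 37 °C on plate-coated GST-Rb(773-928). Buffer was 20 mM HEPES pH 7.2, 10 µM ATP, 10 mM MgCl2 and 2.5% DMSO. Phospho-Rb Ser-780 was detected by Eu-labelled antibody TRF, and IC50 curves were fitted.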
For orientation: An ELISA detects its analyte on a solid surface through an enzyme-linked reagent.

T1 sequence (P49841 2-419): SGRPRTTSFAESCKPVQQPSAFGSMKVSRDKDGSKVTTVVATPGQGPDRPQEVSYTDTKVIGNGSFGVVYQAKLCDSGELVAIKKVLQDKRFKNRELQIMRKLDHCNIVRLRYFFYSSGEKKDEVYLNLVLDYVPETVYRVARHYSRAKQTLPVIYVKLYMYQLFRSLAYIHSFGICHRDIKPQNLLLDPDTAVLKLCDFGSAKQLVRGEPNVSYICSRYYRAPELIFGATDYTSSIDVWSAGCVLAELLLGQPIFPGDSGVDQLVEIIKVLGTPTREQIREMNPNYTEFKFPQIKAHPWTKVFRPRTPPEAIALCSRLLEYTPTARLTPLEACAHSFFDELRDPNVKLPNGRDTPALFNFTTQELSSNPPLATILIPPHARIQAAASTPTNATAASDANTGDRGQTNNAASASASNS

By melting point is commonly meant the temperature, or range, at which the solid turns liquid. By IC50 is commonly meant the concentration needed to halve the response being measured. The compound `N#Cc1ccc2c(c1)C(c1nc(N(CCO)CCO)nc3nn(C4CCCC4)cc13)C(=O)N2` (stereo not drawn) [Example 168, 3-{6-[bis(2-hydroxyethyl)amino]-2-cyclopentyl-2H-pyrazolo[3,4-d]pyrimidin-4-yl}-2-oxo-2,3-dihydro-1H-indole-5-carbonitrile] returned a melting point of 243 to 243.5 °C. The IC50 on His6-GSK-3β (class symbols) was below 300 nM. Besides, the IC50 against CDK5/GST-p25 was below 300 nM.

Take `CCOCCn1cc2c(C3C(=O)Nc4ccc(Cl)cc43)nc(NC[C@@H](C)O)nc2n1` (stereo partly drawn) [Example 218, 5-Chloro-3-[2-(2-ethoxy-ethyl)-6-((R)-2-hydroxy-propylamino)-2H-pyrazolo[3,4-d]pyrimidin-4-yl]-1,3-dihydro-indol-2-one]: the melting point was above 300 °C. For the same compound, the IC50 on His6-GSK-3β (class symbols) is below 300 nM. Besides, on CDK5/GST-p25, the IC50 was below 300 nM.

For the compound `CCCn1cc2c(C3C(=O)Nc4ccc(F)cc43)ncnc2n1` (stereo not drawn) [Example 100], the melting point lay in the range of 288 to 292 °C. Also, on His6-GSK-3β (class symbols), the IC50 is 300 to 3000 nM. At CDK5/GST-p25, this compound displayed an IC50 below 300 nM.

As for `CN(C)CCCNc1nc(C2C(=O)Nc3ccc(Cl)cc32)c2cn(C3CCCC3)nc2n1` (stereo not drawn) [Example 377, 5-Chloro-3-[2-cyclopentyl-6-(3-dimethylamino-propylamino)-2H-pyrazolo [3,4-d]pyrimidin-4-yl]-1,3-dihydro-indol-2-one], the melting point lay within 176 to 179 °C. Also, the IC50 on His6-GSK-3β (class symbols) lay within 300 to 3000 nM. Besides, the IC50 against CDK5/GST-p25 is above 10000 nM.

Consider `N#Cc1ccc2c(c1)C(c1ncnc3[nH]ncc13)C(=O)N2` (stereo not drawn) [Example 109, 2-Oxo-3-(1H-pyrazolo[3,4-d]pyrimidin-4-yl)-2,3-dihydro-1H-indole-5-carbonitrile], for which the melting point was > 300 °C (dec.). For the same compound, the IC50 at His6-GSK-3β (class symbols) was below 300 nM. The IC50 against CDK5/GST-p25 is below 300 nM.

`Cn1cc2c(C3C(=O)Nc4ccc(C#N)cc43)ncnc2n1` (stereo not drawn) [Example 84, 3-(2-Methyl-2H-pyrazolo [3,4-d]pyrimidin-4-yl)-2-oxo-2,3-dihydro-1H-indole-5-carbonitrile]: the melting point is above 350 °C. The IC50 on His6-GSK-3β (class symbols) is 300 to 3000 nM. In addition, on CDK5/GST-p25, the IC50 is below 300 nM.

In the case of `O=C1Nc2ccccc2C1c1ncnc2c1cnn2C1CCCC1` (stereo not drawn) [Example 62, 3-(1Cyclopentyl-1H-pyrazolo[3,4-d]pyrimidin-4-yl)-1,3-dihydro-indol-2-one], the melting point lay within 228 to 231 °C. The IC50 on His6-GSK-3β (numeric bounds) is above 3000 nM. For the same compound, the IC50 against CDK5/GST-p25 is above 10000 nM.

Usually inhibition stands for the change of the read-out against control, counted positive when it falls. Higher therefore signals a strong effect. `CC(C)Nc1nc(C2C(=O)Nc3ccc(C#N)cc32)c2cn(C3CCCC3)nc2n1` (stereo not drawn) [Example 150, 3-(2-cyclopentyl-6-isopropylamino-2H-pyrazolo [3,4-d]pyrimidin-4-yl)-2-oxo-2,3-dihydro-1H-indole-5-carbonitrile] came in with a melting point above 300 °C. Also, on His6-GSK-3β (class symbols), the half-inhibitory concentration (IC50) was below 300 nM. This compound also displayed an inhibition at 10 µM against CDK5/GST-p25 of 76%.

`Cn1ncc2c(C3C(=O)Nc4ccc(C#N)cc43)ncnc21` (stereo not drawn) [Example 108, 3-(1-methyl-1H-pyrazolo[3,4-d]pyrimidin-4-yl)-2-oxo-2,3-dihydro-1H-indole-5-carbonitrile]: the melting point is > 300 °C (dec.). Besides, the IC50 at His6-GSK-3β (class symbols) was above 10000 nM. Also, the IC50 against CDK5/GST-p25 is below 300 nM.

For the compound `N#Cc1ccc2c(c1)NC(=O)C2c1ncnc2c1cnn2C1CCCC1` (stereo not drawn) [Example 63, 3-(1-Cyclopentyl-1H-pyrazolo [3,4-d]pyrimidin-4-yl)-2-oxo-2,3-dihydro-1H-indole-6-carbonitrile], the melting point fell in the range of 335 to 338 °C. Further, the IC50 on His6-GSK-3β (class symbols) was in the range of 300 to 3000 nM. The compound also yielded an IC50 against CDK5/GST-p25 above 10000 nM.

Regarding `CC(C)Cn1cc2c(C3C(=O)Nc4ccc(Br)cc43)nc(Cl)nc2n1` (stereo not drawn) [Example 262, 5-Bromo-3-(6-chloro-2-isobutyl-2H-pyrazolo[3,4-d]pyrimidin-4-yl)-1,3-dihydro-indol-2-one], the melting point is 295 °C (dec.). For the same compound, the IC50 at His6-GSK-3β (numeric bounds) is above 3000 nM. Further, the IC50 against CDK5/GST-p25 is above 10000 nM.
